Reference: PubChem BioAssay (NCI)
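How tested: cells in 96-well plates exposed to compound for 48 hours at five concentrations. GI50: concentration for 50% inhibition of growth. The concentration for full growth arrest is given as TGI.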

Experiments:
Assay in all cases: DTP human tumour cell line panel, 48 h
NCI-H460 lung = test system: NCI-H460 lung
NCI-H522 lung = test system: NCI-H522 lung
NCI/ADR-RES ovarian = test system: NCI/ADR-RES ovarian
OVCAR-3 ovarian = test system: OVCAR-3 ovarian
OVCAR-4 ovarian = test system: OVCAR-4 ovarian
OVCAR-5 ovarian = test system: OVCAR-5 ovarian
OVCAR-8 ovarian = test system: OVCAR-8 ovarian
PC-3 prostate = test system: PC-3 prostate
RPMI-8226 leukemia = test system: RPMI-8226 leukemia
RXF 393 renal = test system: RXF 393 renal
SF-268 CNS = test system: SF-268 CNS
SF-295 CNS = test system: SF-295 CNS
SF-539 CNS = test system: SF-539 CNS
SK-MEL-2 melanoma = test system: SK-MEL-2 melanoma
SK-MEL-28 melanoma = test system: SK-MEL-28 melanoma
SK-MEL-5 melanoma = test system: SK-MEL-5 melanoma
SK-OV-3 ovarian = test system: SK-OV-3 ovarian
SN12C renal = test system: SN12C renal
SNB-19 CNS = test system: SNB-19 CNS
SNB-75 CNS = test system: SNB-75 CNS
SR leukemia = test system: SR leukemia
SW-620 colon = test system: SW-620 colon
T-47D breast = test system: T-47D breast
TK-10 renal = test system: TK-10 renal
U251 CNS = test system: U251 CNS
UACC-257 melanoma = test system: UACC-257 melanoma
UACC-62 melanoma = test system: UACC-62 melanoma
UO-31 renal = test system: UO-31 renal

## CCCCCCCCCCCCCCCCCCNCc1ccc(Cl)cc1
NCI-H460 lung
  GI50: 2.05 µM
  TGI: 4 µM
NCI-H522 lung
  GI50: 2.52 µM
  TGI: 8.73 µM
NCI/ADR-RES ovarian
  GI50: 3.58 µM
  TGI: 18.2 µM
OVCAR-3 ovarian
  GI50: 3.07 µM
  TGI: 11 µM
OVCAR-4 ovarian
  GI50: 1.99 µM
  TGI: 4.76 µM
OVCAR-5 ovarian
  GI50: 2.65 µM
  TGI: 12.1 µM
OVCAR-8 ovarian
  GI50: 4.08 µM
  TGI: 16.6 µM
PC-3 prostate
  GI50: 1.94 µM
  TGI: 3.96 µM
RPMI-8226 leukemia
  GI50: 2.24 µM
  TGI: 5.71 µM
RXF 393 renal
  GI50: 3.39 µM
  TGI: 15.8 µM
SF-268 CNS
  GI50: 3.82 µM
  TGI: 18.2 µM
SF-295 CNS
  GI50: 12.6 µM
  TGI: 28.8 µM
SF-539 CNS
  GI50: 12.1 µM
  TGI: 29.4 µM
SK-MEL-2 melanoma
  GI50: 8.65 µM
  TGI: 25.9 µM
SK-MEL-28 melanoma
  GI50: 13.8 µM
  TGI: 28.8 µM
SK-MEL-5 melanoma
  GI50: 15.7 µM
  TGI: 30.3 µM
SK-OV-3 ovarian
  GI50: 4.02 µM
  TGI: 16.9 µM
SN12C renal
  GI50: 3.63 µM
  TGI: 13.8 µM
SNB-19 CNS
  GI50: 3.31 µM
  TGI: 12 µM
SNB-75 CNS
  GI50: 9.15 µM
  TGI: 27.3 µM
SR leukemia
  GI50: 2.08 µM
  TGI: 6.58 µM
SW-620 colon
  GI50: 1.87 µM
  TGI: 4.03 µM
T-47D breast
  GI50: 4.28 µM
  TGI: 24.9 µM
TK-10 renal
  GI50: 2.3 µM
  TGI: 9.03 µM
U251 CNS
  GI50: 1.96 µM
  TGI: 3.85 µM
UACC-257 melanoma
  GI50: 18.6 µM
  TGI: 36 µM
UACC-62 melanoma
  GI50: 4.02 µM
  TGI: 15.5 µM
UO-31 renal
  GI50: 1.6 µM
  TGI: 3.45 µM
